Where a SMILES comes first, the peptide text is derived from it.
Columns and labels:
E. coli 0111 [1] = experiment: Antimicrobial assay for LF polypeptides (CFU after 6 h); type: cell-based
Method: The antimicrobial activity of the catheptic polypeptide was measured against a clinical isolate, E. coli 0111. […] The 6 kDa catheptic fragment of LF is therefore at least as potent as twelve other natural antimicrobial polypeptides (H. G. Boman, J. Marsh, and J. A. Goode, Eds., Antimicrobial Peptides, (John Wiley & Sons Ltd., New York, N.Y., 1994)), and can function as a bactericidal agent. […] At 100 μM polypeptide, the number of viable bacteria was more than 1,000-fold greater in the cultures treated with the pepsinolytic versus cathepsinolytic fragment (FIG. 1). The basis for this difference in potency may be related to the additional, internal, pepsin cleavages which occur between the two disulfide bridges in the 6 kDa domain (Mann et al., J. Biol. Chem. 269: 23661-7 (1994); Bellamy et al., Biochim. Biophys. Acta 1121: 130-6 (1992)).
Antimicrobial assay for LF polypeptides. Cultures of E. coli 0111 (American Type Culture Collection #43887) were grown at 37° C. in 1% bactopeptone (BP) (Difco) in Dulbecco's phosphate buffered saline (dPBS) (Mediatech) with aeration by shaking (225 rpm). overnight cultures were diluted 8,000-fold in 2×concentrated BP/dPBS and mixed with an equal volume of sterile endotoxin-free distilled water containing serial dilutions of the polypeptide to be tested. The final assay volume was […] in a 12 mm×75 mm polypropylene tube (Falcon) with an ultimate dilution of the overnight cultures of 1:16,000 to yield an original inoculum of ˜1-2×10^4 CFU/ml. The final assay medium was physiological in ionic strength, 1% bactopeptone in 1×Dulbecco's phosphate buffered saline. Cultures were grown for 6 h at 37° C. with aeration as above and then cell density determined by measuring CFU/ml for each assay culture tube. Serial dilutions of each assay tube were plated on Luria Broth bactoagar and incubated for 24 h at 37° C. prior to counting colonies. All assays were done in triplicate and the standard deviation calculated for each concentration of inhibitor. Culture density at the beginning and end of the 6 h growth period was also determined from triplicate cultures lacking any polypeptide inhibitors. Untreated cultures typically grew to 1-2×10^8 CFU/ml in 6 h under these assay conditions.

E. coli 0111 [2] = conditions: Bellamy et al. 1992; cited from earlier work
Lipid A = experiment: Limulus ELISA, ENC50 against Lipid A; type: biochemical, E. coli K12; conditions: endotoxin 200 EU/ml; mean +/− SD
Method: (§1) The peptide-mediated inhibition of endotoxin-induced Limulus amebocyte lysate (LAL) coagulation was measured with a sensitive LAL assay (Zhang et al., J. Clin. Microbiol. 32: 416-422 (1994)). Limulus ELISA is an endotoxin assay based on activation of the LAL coagulation by endotoxin and detection of the generated peptide-C immunoreactivity with an ELISA using a monoclonal antibody to the polypeptide. Endotoxin was defined to be neutralized when it lost its ability to activate the LAL enzymes. The 50% endotoxin-neutralizing concentration (ENC50) reflects the potency of an anti-endotoxin agent; a low ENC50 indicates high potency. Table 2 lists the determined ENC50 value of each anti-endotoxin agent against lipid A and four different types of LPS. The potency of each anti-endotoxin agent varied depending on the type of endotoxin. […] The only difference between the sequence of LF-33 and LF-27 is that LF-27 lacks the first six residues (GRRRRS) at the N-terminus of LF-33. Remarkably, this deletion led to dramatic loss of the endotoxin-neutralizing capacity of the polypeptide in this assay. Binding of serum proteins to endotoxin neutralizes the endotoxin activity in this assay by preventing endotoxin from activating LAL (Emancipator et al., Infect. Immun. 60: 596-601 (1992)).
(§2) LPS. […] LPS (purity >99%) from Neisseria meningitidis was prepared from the group B strain #6275 and its potency was 25 EU/ng. […] The potency of the above endotoxin was determined with the Limulus enzyme-linked immunosorbent assay (ELISA, 43) in comparison with US Pharmacopeia reference standard endotoxin EC-5.
(§3) Briefly, 25 μl endotoxin solution (200 EU/ml) was mixed with an equal volume of test materials in a series of two-fold dilution in 0.15 M NaCl in a sterile 96-well tissue culture plate (Nunc A/S, Roskilde, Denmark), and incubated at 37° C. for 1 h in a dry-air incubator. […] The endotoxin activity was then quantified with the use of Limulus ELISA (Zhang et al., J. Clin. Microbiol. 32: 416-422 (1994)). […] The high sensitivity of the assay allowed for very low levels of the endotoxin activity to be detected. […]

E. coli LPS = experiment: Limulus ELISA, ENC50 against E. coli LPS; type: biochemical, Escherichia coli O113:H10; conditions: endotoxin 200 EU/ml; mean +/− SD
Method: as §1, §2, §3

S. abortus LPS = experiment: Limulus ELISA, ENC50 against S. abortus LPS; type: biochemical, Salmonella abortus equi; conditions: endotoxin 200 EU/ml; mean +/− SD
Method: as §1, §2, §3

P. aer. LPS = experiment: Limulus ELISA, ENC50 against P. aer. LPS; type: biochemical, Pseudomonas aeruginosa; conditions: endotoxin 200 EU/ml; mean +/− SD
Method: as §1, §2, §3

N. min. LPS = experiment: Limulus ELISA, ENC50 against N. min. LPS; type: biochemical, Neisseria meningitidis; conditions: endotoxin 200 EU/ml; mean +/− SD
Method: as §1, §2, §3

RAW 264.7 cells = experiment: Endotoxin-induced TNF-α secretion by RAW264.7 cells in culture medium containing 10% human serum; type: cell-based, murine; conditions: polypeptide 2.5 μM, endotoxin 10 ng/ml
Method: To test the suppression of endotoxin-induced TNF-α secretion under more physiological conditions, LF-33 or polymyxin B was added to human serum (final concentration 10%) before the addition of endotoxin.
Endotoxin induced TNF-α secretion by RAW 264.7 cells. The murine macrophage cell line RAW 264.7 was obtained from the American Type Culture Collection (ATCC, Rockville, Md.) and maintained as described previously (Jeremy, B., Immunol. Today. 16: 417-419 (1995)). The concentration of endotoxin in all buffers and media was controlled to below 0.1 EU/ml. The following protocol was essentially described before and used here with minor modifications (Kelly et al., Infect. Immun. 59: 4491-6 (1991)). Each well of a 96-well tissue culture plate was seeded with 150 μl RAW 264.7 cells at 10^6 cells per ml DMEM (Life Technologies, Gaithersburg, Md.) supplemented with 10% heat-treated fetal bovine serum (Life Technologies), 25 mM HEPES (N-2-hydroxyethylpiperazine-N′-2-ethanesulfonic acid; pH 7.3), penicillin (60 U/ml) and streptomycin (60 μg/ml). After overnight incubation at 37° C. in a 6% CO2 incubator, the medium was aspirated and cells washed with 3-changes of endotoxin-free Hank's balanced salt solution (HBSS, Life Technologies) supplemented with 25 mM HEPES (pH 7.3). Control endotoxin (10 ng/ml) and test materials were prepared in HBSS-HEPES. After incubation in a 37° C. water bath for 1 h, 0.2 ml of these solutions was added in triplicate to each well and incubated at 37° C. for 6 h. The supernatants were then collected and stored at −70° C. before the measurement of […] activity. Controls included HBSS-HEPES and test materials in the absence of endotoxin. TNF-α activity of the medium and test materials was below […]. The human serum used in some experiments was a pool from normal donors.
Determination of TNF activity. TNF-α activity in the culture supernatant was determined based on its cytotoxicity for the mouse fibrosarcoma cell line WEHI 164 cells (ATCC). […] The antibody at 1:100 dilution completely eliminated the cytotoxicity in the culture supernatant of the RAW 264.7 cell stimulated by endotoxin and in the mouse sera collected 1 h after intraperitoneal injection of endotoxin.
Briefly, the 96-well tissue culture plates were seeded with 100 μl WEHI164 cells (5×10^4 cells) in RPMI-1640 medium (Life Technologies) containing 10% heat-treated fetal bovine serum, 25 mM HEPES (pH 7.3), penicillin (60 U/ml), streptomycin (60 μg/ml), and actinomycin D (4 μg/ml). […] Cell viability was then determined by the addition of 10 μl MTT (Thiazolyl blue, Sigma) stock solution (5 mg/ml in saline) to each well, and the incubation was allowed to continue for 6 h. […] The plate was read at 570 nm with a reference of 630 nm in a microplate reader. […]

E. coli 0111 [3] = experiment: Dose response of E. coli 0111 cells in the presence of LF polypeptides; type: cell-based; conditions: E. coli 0111, 5 hours, OD 600 nm
Method: To compare the activity of the above described 33-mer which contains both basic clusters, and the above described 27-mer, which contains only one basic cluster, E. coli cultures were grown for 5 hours in the presence of varying doses of the two polypeptides.
Dose response of E. coli 0111 cells in the presence of LF polypeptides. E. coli were cultured as described above, for 5 hr in the presence of varying concentrations of polypeptide 33-mer or the related 27-mer. Inhibition of culture growth was determined spectrophotometrically as described earlier.

RAW264.7 cells = experiment: Cytotoxicity of LF-33 to RAW264.7 cells (MTT); type: cell-based, murine; conditions: 10 μM, highest concentration used
E. coli 0111 [4] = experiment: Potentiation of Rifampicin by LF polypeptides; conditions: 5 μM polypeptide + 0.9 μg/ml rifampicin, 6 hr
Method: E. coli cultures were exposed to sub-optimal doses of Rifampicin in the presence or absence of sub-optimal doses of the indicated polypeptides (FIG. 5), and were incubated for 6 hours, at which point CFU were determined.
E. coli 0111 were grown overnight as described above. Overnight cultures were then diluted 1:16,000 in 1% BP/PBS containing 0.9 μg/ml Rifampicin (Sigma-Aldrich Fine chemicals) and 5 μM LF polypeptides as indicated. Control cultures were those not exposed to any polypeptide. The diluted cultures were then incubated at 37° C. for 6 hr with aeration by shaking. The number of viable bacteria were then determined by dilution plating samples from each group and subsequently counting colony forming units (CFU). All values represent the average of duplicate independent experiments.

Compound: pepsinolytic fragment: 6 kDa fragment released from LF by pepsin, amino acids 1-47, no amide bond between amino acid 11 and 12 [reference compound]
- number of viable bacteria, pepsinolytic versus cathepsinolytic fragment (E. coli 0111 [1]; 100 μM polypeptide): more than 1,000 fold
- minimum inhibitory concentration (MIC) (E. coli 0111 [1]; E. coli 0111, physiological ionic strength, 6 h, CFU): 11 to 33 µM
- MIC previously reported (E. coli 0111 [2]): 18 µM

Compound: Polymyxin B [reference compound]
- IC50 (Lipid A): 0.19 µM
- IC50 (E. coli LPS): 1.95 µM
- IC50 (S. abortus LPS): 18.2 µM
- IC50 (P. aer. LPS): 3.91 µM
- IC50 (N. min. LPS): > 100 µM
- TNF-α secretion induced by P. aer. LPS (RAW 264.7 cells; control 4,428): 4,206 +/− 956 pg/ml
- TNF-α secretion, P. aer. LPS mixing with serum first (RAW 264.7 cells; control 4,428): 4,206 +/− 956 pg/ml
- TNF-α secretion induced by S. abortus LPS (RAW 264.7 cells; control 5,726): 4,090 +/− 806 pg/ml
- TNF-α secretion induced by N. min. LPS (RAW 264.7 cells; control 8,817): 8,181 +/− 1,032 pg/ml

Compound: CSCC[C@H](NC(=O)[C@H](CC(N)=O)NC(=O)[C@H](CCCNC(=N)N)NC(=O)[C@H](CCC(N)=O)NC(=O)[C@H](Cc1c[nH]c2ccccc12)NC(=O)[C@H](CCC(N)=O)NC(=O)[C@H](Cc1ccccc1)NC(=O)[C@H](CS)NC(=O)[C@H](CCCCN)NC(=O)[C@@H](NC(=O)[C@H](C)NC(=O)[C@H](CCC(=O)O)NC(=O)[C@@H]1CCCN1C(=O)[C@H](CCC(N)=O)NC(=O)[C@H](CO)NC(=O)[C@@H](NC(=O)[C@H](C)NC(=O)[C@H](CS)NC(=O)[C@H](Cc1c[nH]c2ccccc12)NC(=O)[C@H](CCC(N)=O)NC(=O)[C@@H](NC(=O)[C@H](CO)NC(=O)[C@H](CCCNC(=N)N)NC(=O)[C@H](CCCNC(=N)N)NC(=O)[C@H](CCCNC(=N)N)NC(=O)[C@H](CCCNC(=N)N)NC(=O)CN)C(C)C)C(C)C)[C@@H](C)O)C(=O)N[C@@H](CCCNC(=N)N)C(=O)N[C@@H](CCCCN)C(=O)N[C@H](C(=O)N[C@@H](CCCNC(=N)N)C(=O)NCC(=O)N1CCC[C@H]1C(=O)O)C(C)C [LF-33] (H-GRRRRSVQWCAVSQPEATKCFQWQRNMRKVRGP-OH)
- minimum inhibitory concentration (MIC) (E. coli 0111 [3]): 2 to 5 µM
- cytotoxicity to RAW264.7 cells (RAW264.7 cells): no cytotoxicity
- % killed, average (M. smegmatis BH1; 50 μM LF-33, 16 hours, average of three experiments, listed as 33-mer): approximately 94%
- anti-mycobacterial MIC (M. smegmatis BH1; M. smegmatis, 16 hours): not more than 10 μM
- viable bacteria relative to the rifampicin treatment alone (E. coli 0111 [4]): approximately 1%

Source: patent US6399570B1, “Antimicrobial/endotoxin neutralizing polypeptide” (priority 1999, dated 2002)
